Results on one compound are retold here after patent US20200397675A1, “METHOD FOR IMPROVING SOLUBILITY OF SPARINGLY WATER-SOLUBLE COMPONENT” (ADEKA CORPORATION, priority 2018, published 2020).

SMILES strings stand for the structures. Where only a bound is given, the exact number is not on record here.

The nature of this data set: Investigation of solubility of sparingly water-soluble components in Solutions 1 to 9 (0.1 g additions until turbidity). The conditions noted are these: 25° C.

Description: In addition, confirmation that turbidity or precipitation had not occurred was carried out by adding 0.1 g of the sparingly water-soluble component at a time, stirring for 10 minutes at 25° C. and then leaving to stand. […] Moreover, further tests were not carried out in cases where the solubility exceeded 5 [g/100 g solution].

With `CCCCC(CC)COCC(O)CO` (stereo not drawn) [2-ethylhexyl glyceryl ether], the solubility worked out at 0.2 g/100 g solution (Comparative Example 1, Solution 1 (water 100 g)); 0.3 g/100 g solution (Comparative Example 2, Solution 4 (water 90 g, ethanol 10 g)); 0.3 g/100 g solution (Comparative Example 3, Solution 5 (water 90 g, propylene glycol 10 g)); 0.3 g/100 g solution (Comparative Example 4, Solution 6 (water 90 g, dipropylene glycol 10 g)); 0.2 g/100 g solution (Comparative Example 5, Solution 7 (water 90 g, butylene glycol 10 g)); 0.2 g/100 g solution (Comparative Example 6, Solution 8 (water 90 g, glycerin 10 g)). Moreover, the solubility is on record as 1.5 g/100 g solution (Example 1, Solution 2 (water 90 g, Compound (1)-1 10 g)); 2.3 g/100 g solution (Example 2, Solution 3 (water 90 g, Compound (1)-2 10 g)); more than 5 g/100 g solution (Example 3, Solution 9 (water 80 g, Compound (1)-2 10 g, butylene glycol 10 g)).
